In patent US11912686B2 (Gilead Sciences, Inc., priority 2020, dated 2024):

molecular target: human LPAR1 (Homo sapiens (Human), UniProt Q92633); test: LPAR1 intracellular calcium mobilization assay (antagonist mode, FLIPR); assay type: cell-based; details: CHO-K1 EDG2 cells expressing human LPAR1, LPA 18:2 at EC80 (100 nM), test compound 0.5 nM to 10 μM
Sequence (Q92633 whole entry): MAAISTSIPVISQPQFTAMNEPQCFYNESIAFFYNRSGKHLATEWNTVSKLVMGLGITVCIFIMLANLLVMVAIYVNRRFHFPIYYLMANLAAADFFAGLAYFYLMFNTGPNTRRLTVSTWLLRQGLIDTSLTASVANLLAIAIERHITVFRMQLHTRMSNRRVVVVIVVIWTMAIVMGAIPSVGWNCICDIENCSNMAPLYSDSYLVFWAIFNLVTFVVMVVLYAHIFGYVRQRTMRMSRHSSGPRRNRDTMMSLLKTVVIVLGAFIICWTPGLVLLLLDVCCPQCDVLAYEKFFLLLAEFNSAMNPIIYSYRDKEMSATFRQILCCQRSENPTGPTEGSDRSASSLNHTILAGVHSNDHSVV

Compound	EC50
C[C@@H](OC(=O)Nc1c(-c2ccc(NC(=O)C3(C)CC(F)(F)C3)cn2)nnn1C)c1cc(F)cnc1F [Compound 226, (R)-1-(2,5-difluoropyridin-3-yl)ethyl (4-(5-(3,3-difluoro-1-methylcyclobutane-1-carboxamido)pyridin-2-yl)-1-methyl-1H-1,2,3-triazol-5-yl)carbamate]	184 nM
C[C@@H](OC(=O)Nc1c(-c2ccc(NC(=O)c3ccnc(F)c3F)cn2)nnn1C)c1cccnc1F [Compound 294, (R)-1-(2-fluoropyridin-3-yl)ethyl (4-(5-(2,3-difluoroisonicotinamido)pyridin-2-yl)-1-methyl-1H-1,2,3-triazol-5-yl)carbamate]	238 nM
C[C@@H](OC(=O)Nc1c(-c2ccc(NC(=O)C3CC4(CC4)C3)cn2)nnn1C)c1cccnc1Cl [Compound 88, (R)-1-(2-chloropyridin-3-yl)ethyl (1-methyl-4-(5-(spiro[2.3]hexane-5-carboxamido)pyridin-2-yl)-1H-1,2,3-triazol-5-yl)carbamate]	8.6 nM
C[C@@H](OC(=O)Nc1c(-c2ccc(NC(=O)C3(C#N)CC34CCC4)cn2)nnn1C)c1cccnc1Cl (stereo partly drawn) [Compound 74, (R)-1-(2-chloropyridin-3-yl)ethyl (4-(5-(1-cyanospiro[2.3]hexane-1-carboxamido)pyridin-2-yl)-1-methyl-1H-1,2,3-triazol-5-yl)carbamate]	1340 nM
Cc1cc(C(=O)Nc2ccc(-c3nnn(C)c3NC(=O)O[C@H](C)c3cc(F)cnc3F)nc2)cnn1 [Compound 231, (R)-1-(2,5-difluoropyridin-3-yl)ethyl (1-methyl-4-(5-(6-methylpyridazine-4-carboxamido)pyridin-2-yl)-1H-1,2,3-triazol-5-yl)carbamate]	412 nM
C[C@@H](OC(=O)Nc1c(-c2ccc(NC(=O)c3cnc(C(F)(F)F)nc3)cn2)nnn1C)c1cc(F)cnc1Cl [Compound 290, (R)-1-(2-chloro-5-fluoropyridin-3-yl)ethyl (1-methyl-4-(5-(2-(trifluoromethyl)pyrimidine-5-carboxamido)pyridin-2-yl)-1H-1,2,3-triazol-5-yl)carbamate]	10.9 nM
C[C@@H](OC(=O)Nc1c(-c2ccc(NC(=O)C34CC(O)(C3)C4)cn2)nnn1C)c1cccnc1Cl [Compound 117, (R)-1-(2-chloropyridin-3-yl)ethyl (4-(5-(3-hydroxybicyclo[1.1.1]pentane-1-carboxamido)pyridin-2-yl)-1-methyl-1H-1,2,3-triazol-5-yl)carbamate]	1140 nM
C[C@@H](OC(=O)Nc1c(-c2ccc(NC(=O)[C@@H]3C[C@H]3F)cn2)nnn1C)c1cc(F)cnc1F [Compound 161, (R)-1-(2,5-difluoropyridin-3-yl)ethyl (4-(5-((1S,2R)-2-fluorocyclopropane-1-carboxamido)pyridin-2-yl)-1-methyl-1H-1,2,3-triazol-5-yl)carbamate]	66.8 nM
Cc1nccc(C(=O)Nc2ccc(-c3nnn(C)c3NC(=O)O[C@H](C)c3cc(F)cnc3F)nc2)n1 [Compound 249, (R)-1-(2,5-difluoropyridin-3-yl)ethyl (1-methyl-4-(5-(2-methylpyrimidine-4-carboxamido)pyridin-2-yl)-1H-1,2,3-triazol-5-yl)carbamate]	537 nM
C[C@@H](OC(=O)Nc1c(-c2ccc(NC(=O)C3(N)CC(F)(F)C3)cn2)nnn1C)c1cccnc1Cl [Compound 310, (R)-1-(2-chloropyridin-3-yl)ethyl (4-(5-(1-amino-3,3-difluorocyclobutane-1-carboxamido)pyridin-2-yl)-1-methyl-1H-1,2,3-triazol-5-yl)carbamate]	454 nM
CNC(=O)Nc1ccc(-c2nnn(C)c2NC(=O)O[C@H](CF)c2cccc(F)c2)nc1 [Compound 187, (S)-2-fluoro-1-(3-fluorophenyl)ethyl (1-methyl-4-(5-(3-methylureido)pyridin-2-yl)-1H-1,2,3-triazol-5-yl)carbamate]	1240 nM
C[C@@H](OC(=O)Nc1c(-c2ccc(NC(=O)C34CC(Cl)(C3)C4)cn2)nnn1C)c1cccnc1Cl [Compound 82, (R)-1-(2-chloropyridin-3-yl)ethyl (4-(5-(3-chlorobicyclo[1.1.1]pentane-1-carboxamido)pyridin-2-yl)-1-methyl-1H-1,2,3-triazol-5-yl)carbamate]	20.4 nM
C[C@@H](OC(=O)Nc1c(-c2ccc(NC(=O)[C@]3(C)C[C@@H](C#N)C3)cn2)nnn1C)c1cccnc1Cl [Compound 122, (R)-1-(2-chloropyridin-3-yl)ethyl (4-(5-((1r,3R)-3-cyano-1-methylcyclobutane-1-carboxamido)pyridin-2-yl)-1-methyl-1H-1,2,3-triazol-5-yl)carbamate]	123 nM
C[C@@H](OC(=O)Nc1c(-c2ccc(NC(=O)c3cnc(C4CC4)nc3)cn2)nnn1C)c1cc(F)cnc1F [Compound 283, (R)-1-(2,5-difluoropyridin-3-yl)ethyl (4-(5-(2-cyclopropylpyrimidine-5-carboxamido)pyridin-2-yl)-1-methyl-1H-1,2,3-triazol-5-yl)carbamate]	82.4 nM
C[C@@H](OC(=O)Nc1c(-c2ccc(NC(=O)c3cnc(F)cc3F)cn2)nnn1C)c1cc(F)cnc1F [Compound 255, (R)-1-(2,5-difluoropyridin-3-yl)ethyl (4-(5-(4,6-difluoronicotinamido)pyridin-2-yl)-1-methyl-1H-1,2,3-triazol-5-yl)carbamate]	346 nM
CCC1(C(=O)Nc2ccc(-c3nnn(C)c3NC(=O)O[C@H](C)c3cccnc3Cl)nc2)COC1 [Compound 96, (R)-1-(2-chloropyridin-3-yl)ethyl (4-(5-(3-ethyloxetane-3-carboxamido)pyridin-2-yl)-1-methyl-1H-1,2,3-triazol-5-yl)carbamate]	2330 nM
COC(=O)Nc1ccc(-c2nnn(C)c2NC(=O)O[C@H](C)c2cccnc2Cl)nc1 [Compound 17, (R)-1-(2-chloropyridin-3-yl)ethyl (4-(5-((methoxycarbonyl)amino)pyridin-2-yl)-1-methyl-1H-1,2,3-triazol-5-yl)carbamate]	29.3 nM
C[C@@H](OC(=O)Nc1c(-c2ccc(NC(=O)c3cc(C#N)no3)cn2)nnn1C)c1cc(F)cnc1F [Compound 258, (R)-1-(2,5-difluoropyridin-3-yl)ethyl (4-(5-(3-cyanoisoxazole-5-carboxamido)pyridin-2-yl)-1-methyl-1H-1,2,3-triazol-5-yl)carbamate]	19.3 nM
C[C@@H](OC(=O)Nc1c(-c2ccc(NC(=O)C34CC(C#N)(C3)C4)cn2)nnn1C)c1cc(F)cnc1Cl [Compound 167, (R)-1-(2-chloro-5-fluoropyridin-3-yl)ethyl (4-(5-(3-cyanobicyclo[1.1.1]pentane-1-carboxamido)pyridin-2-yl)-1-methyl-1H-1,2,3-triazol-5-yl)carbamate]	99.4 nM
C[C@@H](OC(=O)Nc1c(-c2ccc(NC(=O)C3CCO3)cn2)nnn1C)c1cccnc1Cl (stereo partly drawn) [Compound 54, (R)-1-(2-chloropyridin-3-yl)ethyl (1-methyl-4-(5-(oxetane-2-carboxamido)pyridin-2-yl)-1H-1,2,3-triazol-5-yl)carbamate]	7860 nM
C[C@@H](OC(=O)Nc1c(-c2ccc(NC(=O)C3(C(F)(F)F)CCC3)cn2)nnn1C)c1cccnc1Cl [Compound 48, (R)-1-(2-chloropyridin-3-yl)ethyl (1-methyl-4-(5-(1-(trifluoromethyl)cyclobutane-1-carboxamido)pyridin-2-yl)-1H-1,2,3-triazol-5-yl)carbamate]	22.8 nM
